Holding throughout (assay type): functional
Assay [1] deals with Streptococcus pneumoniae. Put plainly: Bactericidal activity against Streptococcus pneumoniae ATCC 49619 incubated for 16 to 20 hrs by CLSI based broth microdilution method. Particulars: time 16-20 hrs. Background: In broth dilution the organism is exposed to a series of concentrations in liquid medium.
Assay [2] deals with Streptococcus pneumoniae. In words: Selectivity ratio of MBC for Streptococcus pneumoniae ATCC 49619 to MIC for Streptococcus pneumoniae ATCC 49619.
The test system of assay [3] is Staphylococcus aureus. In words: Antibacterial activity against methicillin-resistant Staphylococcus aureus PU 32 harboring i-ermA gene incubated for 16 to 20 hrs by CLSI based broth microdilution method. Particulars: time 16-20 hrs.
Assay [4] has as its system Streptococcus pneumoniae. In words: Selectivity ratio of MBC for Streptococcus pneumoniae PU 09 harboring mef gene to MIC for Streptococcus pneumoniae PU 09 harboring mef gene.
The test system of assay [5] is Staphylococcus aureus. In words: Bactericidal activity against methicillin-resistant Staphylococcus aureus PU 20 harboring c-ermA gene incubated for 16 to 20 hrs by CLSI based broth microdilution method. Particulars: time 16-20 hrs.
The test system of assay [6] is Streptococcus pneumoniae. Put plainly: Antibacterial activity against Streptococcus pneumoniae ATCC 49619 incubated for 16 to 20 hrs by CLSI based broth microdilution method. Particulars: time 16-20 hrs.
Assay [7] deals with Staphylococcus aureus. Put plainly: Selectivity ratio of MBC for methicillin-resistant Staphylococcus aureus PU 32 harboring i-ermA gene to MIC for methicillin-resistant Staphylococcus aureus PU 32 harboring i-ermA gene.
Assay [8] concerns Haemophilus influenzae. In words: Bactericidal activity against Haemophilus influenzae ATCC 49247 incubated for 16 to 20 hrs by CLSI based broth microdilution method. Particulars: time 16-20 hrs.
The subject of assay [9] is Staphylococcus aureus. Put plainly: Antibacterial activity against methicillin-resistant Staphylococcus aureus PU 20 harboring c-ermA gene incubated for 16 to 20 hrs by CLSI based broth microdilution method. Particulars: time 16-20 hrs.
Assay [10] relates to Haemophilus influenzae. In words: Selectivity ratio of MBC for Haemophilus influenzae ATCC 49247 to MIC for Haemophilus influenzae ATCC 49247.
Assay [11] deals with Streptococcus pneumoniae. In words: Selectivity ratio of MBC for Streptococcus pneumoniae 07P390 harboring c-erm gene to MIC for Streptococcus pneumoniae 07P390 harboring c-erm gene.
Assay [12] has as its system Streptococcus pneumoniae. In words: Bactericidal activity against Streptococcus pneumoniae 07P390 harboring c-erm gene incubated for 16 to 20 hrs by CLSI based broth microdilution method. Particulars: time 16-20 hrs.
In assay [13] the test system is Staphylococcus aureus. Put plainly: Bactericidal activity against methicillin-resistant Staphylococcus aureus PU 32 harboring i-ermA gene incubated for 16 to 20 hrs by CLSI based broth microdilution method. Particulars: time 16-20 hrs.
Assay [14] relates to Streptococcus pneumoniae. In words: Antibacterial activity against Streptococcus pneumoniae 07P390 harboring c-erm gene incubated for 16 to 20 hrs by CLSI based broth microdilution method. Particulars: time 16-20 hrs.
Assay [15] has as its system Streptococcus pyogenes. Put plainly: Selectivity ratio of MBC for Streptococcus pyogenes 01-968 harboring i-ermB gene to MIC for Streptococcus pyogenes 01-968 harboring i-ermB gene.
In assay [16] the test system is Streptococcus pyogenes. In words: Bactericidal activity against Streptococcus pyogenes 01-968 harboring i-ermB gene incubated for 16 to 20 hrs by CLSI based broth microdilution method. Particulars: time 16-20 hrs.
Assay [17] concerns Streptococcus pneumoniae. In words: Antibacterial activity against Streptococcus pneumoniae PU 09 harboring mef gene incubated for 16 to 20 hrs by CLSI based broth microdilution method. Particulars: time 16-20 hrs.
Assay [18] deals with Streptococcus pyogenes. In words: Antibacterial activity against Streptococcus pyogenes 01-968 harboring i-ermB gene incubated for 16 to 20 hrs by CLSI based broth microdilution method. Particulars: time 16-20 hrs.
Assay [19] has as its system Streptococcus pneumoniae. In words: Bactericidal activity against Streptococcus pneumoniae PU 09 harboring mef gene incubated for 16 to 20 hrs by CLSI based broth microdilution method. Particulars: time 16-20 hrs.
For assay [20], the system named is Haemophilus influenzae. Put plainly: Antibacterial activity against Haemophilus influenzae ATCC 49247 incubated for 16 to 20 hrs by CLSI based broth microdilution method. Particulars: time 16-20 hrs.

Values after ≈ are worked out from the molar mass of the structure shown.

The results in this text go back to ChEMBL document CHEMBL5608186, “Design, synthesis and structure-activity relationships of novel non-ketolides: 9-Oxime clarithromycin featured with seven-to thirteen-atom-length diamine linkers at 3-OH” (Eur J Med Chem, 2024).

`CC[C@H]1OC(=O)[C@H](C)[C@@H](OC(=O)CCN2CCN(c3nc4c(cc3F)c(=O)c(C(=O)O)cn4CC)CC2)[C@H](C)[C@@H](O[C@@H]2O[C@H](C)C[C@H](N(C)C)[C@H]2O)[C@](C)(OC)C[C@@H](C)/C(=N\OCC#Cc2cncc(C(=O)NC)c2)[C@H](C)[C@H]2OC(=O)O[C@@]21C`: the MBC in the assay with Streptococcus pneumoniae [1] is 0.03 µg/mL (≈ 0.0255 µM); in the assay with Staphylococcus aureus [5] it was greater than 256 µg/mL; in the assay with Haemophilus influenzae [8] it was 32 µg/mL (≈ 27.2 µM); in the assay on Streptococcus pneumoniae [12], greater than 32 µg/mL; against Staphylococcus aureus [13], greater than 256 µg/mL; in the assay with Streptococcus pyogenes [16], greater than 32 µg/mL. The MBC in the assay with Streptococcus pneumoniae [19] is 0.25 µg/mL (≈ 0.212 µM). Besides, the Selectivity ratio is 1 in the assay on Streptococcus pneumoniae [2]; 4 in the assay on Streptococcus pneumoniae [4]; greater than 4 with Staphylococcus aureus [7]; 1 with Haemophilus influenzae [10]; greater than 8 in the assay with Streptococcus pneumoniae [11]; greater than 8 with Streptococcus pyogenes [15]. Moreover, the MIC with Staphylococcus aureus [3] is 64 µg/mL (≈ 54.4 µM); in the assay with Streptococcus pneumoniae [6], 0.03 µg/mL (≈ 0.0255 µM); with Staphylococcus aureus [9] it was greater than 256 µg/mL; in the assay on Streptococcus pneumoniae [14] it was 4 µg/mL (≈ 3.4 µM); with Streptococcus pneumoniae [17], 0.06 µg/mL (≈ 0.051 µM); against Streptococcus pyogenes [18], 4 µg/mL (≈ 3.4 µM). Moreover, the MIC against Haemophilus influenzae [20] amounted to 32 µg/mL (≈ 27.2 µM).
In the case of `CC[C@H]1OC(=O)[C@H](C)[C@@H](OC(=O)CCNCCCCNc2cc3c(cc2F)c(=O)c(C(=O)O)cn3C2CC2)[C@H](C)[C@@H](O[C@@H]2O[C@H](C)C[C@H](N(C)C)[C@H]2O)[C@](C)(OC)C[C@@H](C)/C(=N\OCCCc2cncc(C(=O)NC)c2)[C@H](C)[C@H]2OC(=O)O[C@@]21C`, the MBC in the assay with Streptococcus pneumoniae [1] was 0.008 µg/mL (≈ 0.0067 µM); with Staphylococcus aureus [5], greater than 256 µg/mL; in the assay with Haemophilus influenzae [8], 16 µg/mL (≈ 13.4 µM); against Streptococcus pneumoniae [12], 0.12 µg/mL (≈ 0.1 µM); against Staphylococcus aureus [13], 32 µg/mL (≈ 26.8 µM); against Streptococcus pyogenes [16], greater than 2 µg/mL. In the assay on Streptococcus pneumoniae [19], this compound yielded an MBC of 0.03 µg/mL (≈ 0.0251 µM). The Selectivity ratio result with Streptococcus pneumoniae [2] is “>=1”; in the assay on Streptococcus pneumoniae [4], “>=4”; with Staphylococcus aureus [7], 1; in the assay with Haemophilus influenzae [10] it was 2; in the assay with Streptococcus pneumoniae [11], 4; in the assay on Streptococcus pyogenes [15] it was greater than 8. Also, the MIC in the assay with Staphylococcus aureus [3] was 32 µg/mL (≈ 26.8 µM); against Streptococcus pneumoniae [6], no more than 0.008 µg/mL; in the assay with Staphylococcus aureus [9], greater than 256 µg/mL; in the assay on Streptococcus pneumoniae [14] it was 0.03 µg/mL (≈ 0.0251 µM); against Streptococcus pneumoniae [17], no more than 0.008 µg/mL; against Streptococcus pyogenes [18], 0.25 µg/mL (≈ 0.209 µM). This compound had an MIC against Haemophilus influenzae [20] of 8 µg/mL (≈ 6.7 µM).
In the case of `CC[C@H]1OC(=O)[C@H](C)[C@@H](OC(=O)CCN2CCN(c3cc4c(cc3F)c(=O)c(C(=O)O)cn4CC)CC2)[C@H](C)[C@@H](O[C@@H]2O[C@H](C)C[C@H](N(C)C)[C@H]2O)[C@](C)(OC)C[C@@H](C)/C(=N\OCC#Cc2cncc(C(=O)NC)c2)[C@H](C)[C@H]2OC(=O)O[C@@]21C`, the MBC with Streptococcus pneumoniae [1] was 0.12 µg/mL (≈ 0.102 µM); against Staphylococcus aureus [5], greater than 256 µg/mL; in the assay on Haemophilus influenzae [8] it was 16 µg/mL (≈ 13.6 µM); against Streptococcus pneumoniae [12] it was greater than 64 µg/mL; against Staphylococcus aureus [13], greater than 256 µg/mL; against Streptococcus pyogenes [16], greater than 128 µg/mL. The MBC against Streptococcus pneumoniae [19] amounted to 1 µg/mL (≈ 0.85 µM). Besides, the Selectivity ratio is on record as 1 in the assay on Streptococcus pneumoniae [2]; 8 in the assay with Streptococcus pneumoniae [4]; greater than 4 with Staphylococcus aureus [7]; 1 in the assay on Haemophilus influenzae [10]; greater than 8 in the assay with Streptococcus pneumoniae [11]; greater than 8 with Streptococcus pyogenes [15]. In addition, the MIC in the assay on Staphylococcus aureus [3] was 64 µg/mL (≈ 54.4 µM); against Streptococcus pneumoniae [6], 0.12 µg/mL (≈ 0.102 µM); in the assay with Staphylococcus aureus [9] it was greater than 256 µg/mL; in the assay on Streptococcus pneumoniae [14], 8 µg/mL (≈ 6.8 µM); in the assay with Streptococcus pneumoniae [17] it was 0.12 µg/mL (≈ 0.102 µM); against Streptococcus pyogenes [18], 16 µg/mL (≈ 13.6 µM). The MIC against Haemophilus influenzae [20] came to 16 µg/mL (≈ 13.6 µM).
